Read-outs that look alike come from different tables or passages of the source.
Legend:
[1] = test system: Aβ42/Aβtotal in CHO cells stably overexpressing human APP; test: Aβ sandwich ELISA, CHO cells stably overexpressing human APP; type: cell-based, Chinese hamster
[2] = test system: Aβ42/Aβtotal in HEK293 cells stably overexpressing human APP; type: cell-based

Compound | ratio of Aβ42/Aβtotal (Aβ42 generation) ([1]; CHO-APP, SKF96365 100 μM, nifedipine 1 μM, ω-conotoxin GVIA 1 μM, 12 hour treatment) | ratio of Aβ42/Aβtotal (Aβ42 generation) ([2]; HEK293-APP, SKF96365 100 μM, nifedipine 1 μM, ω-conotoxin GVIA 1 μM, 12 hour treatment) | ratio of Aβ42/Aβtotal (Aβ42 generation) [1] | ratio of Aβ42/Aβtotal (Aβ42 generation) [2]
COc1ccc(CCCOC(Cn2ccnc2)c2ccc(OC)cc2)cc1 (stereo not shown) [SKF96365] | specifically elevated | specifically elevated |  | 
ω-conotoxin GVIA |  |  | no significant effect | no significant effect
